# Earlier results, collected in patent US5502059A, “Substituted 1-naphthyl-3-pyrazolecarboxamides which are active on neurotensin, their preparation and pharmaceutical compositions containing them” (Sanofi, priority 1993, dated 1996).
# System: neurotensin receptors
smiles,measurement,value
"COc1cccc(OC)c1-c1cc(C(=O)NC2(C(=O)O)C3CC4CC(C3)CC2C4)nn1-c1ccnc2cc(Cl)ccc12 (stereo not shown) [SR 48692, 2-1-(7-chloro-4-quinolyl)-5-(2,6-dimethoxyphenyl)-3pyrazolylcarbonylamino!-2-adamantanecarboxylic acid]",neurotensin-antagonist activity,potent and selective neurotensin-antagonist activity
